The text below walks through data of ChEMBL document CHEMBL5055658, “Discovery of a Highly Potent and Selective Degrader Targeting Hematopoietic Prostaglandin D Synthase via In Silico Design” (J Med Chem, 2021).

The subject of assay [1] is KU812. The assay can be described thus: Suppression of PGD2 production in human KU812 cells measured in presence of compound 43 up to 3000 pM incubated for 6 hrs by LC-MS analysis. The format is functional, cell-based.
Assay [2] concerns the target Hematopoietic prostaglandin D synthase (Homo sapiens, UniProt O60760). The assay can be described thus: Inhibition of H-PGDS (unknown origin) using fluorescent probe by competition binding assay.
For assay [3], the target named is T1, Protein cereblon/Hematopoietic prostaglandin D synthase (Homo sapiens, UniProt O60760+Q96SW2). The assay can be described thus: PROTAC activity at H-PGDS/CRBN in human KU812 cells assessed as H-PGDS degradation measured after 6 hrs by Western blot analysis. The format is cell-based. Conditions: for DC50: ku812 cell line. On the technique in general: In western blotting, separated proteins are transferred to a membrane and probed.

Assay [4] deals with T1, Protein cereblon/Hematopoietic prostaglandin D synthase. The assay can be described thus: PROTAC activity at H-PGDS/CRBN in human KU812 cells assessed as H-PGDS degradation in presence of MG132 at 100 pM measured after 6 hrs by Western blot analysis. The settings on record: KU812 cell line. The format is cell-based.
Target sequence in this assay (O60760 whole entry, looked up): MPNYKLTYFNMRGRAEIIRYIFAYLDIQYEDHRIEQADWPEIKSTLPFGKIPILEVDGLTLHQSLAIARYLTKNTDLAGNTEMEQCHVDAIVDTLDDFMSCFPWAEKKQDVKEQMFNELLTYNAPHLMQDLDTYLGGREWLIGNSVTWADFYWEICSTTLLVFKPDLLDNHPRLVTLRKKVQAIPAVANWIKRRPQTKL
Target sequence in this assay (Q96SW2 whole entry, looked up): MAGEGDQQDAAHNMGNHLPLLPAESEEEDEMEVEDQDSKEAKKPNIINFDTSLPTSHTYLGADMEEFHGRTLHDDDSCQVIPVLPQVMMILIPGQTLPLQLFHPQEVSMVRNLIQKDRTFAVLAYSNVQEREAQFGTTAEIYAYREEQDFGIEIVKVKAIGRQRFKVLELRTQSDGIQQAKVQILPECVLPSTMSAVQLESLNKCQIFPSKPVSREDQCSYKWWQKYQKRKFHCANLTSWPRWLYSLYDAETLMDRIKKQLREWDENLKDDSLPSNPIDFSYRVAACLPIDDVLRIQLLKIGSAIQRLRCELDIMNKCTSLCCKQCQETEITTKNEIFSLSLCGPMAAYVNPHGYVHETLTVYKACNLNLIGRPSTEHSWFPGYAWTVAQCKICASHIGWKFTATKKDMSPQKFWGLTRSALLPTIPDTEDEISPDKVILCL
For assay [5] the target is unchanged. Briefly: PROTAC activity at H-PGDS/CRBN in human KU812 cells assessed as reduction in H-PGDS level at 10 pM measured after 6 hrs by Western blot analysis relative to control. The format is cell-based. Details: scale not given: the % may be the effect or the level left. Conditions: KU812 cell line.
Target sequence in this assay (O60760 whole entry, looked up): as the sequence (O60760 whole entry, looked up) above
Target sequence in this assay (Q96SW2 whole entry, looked up): as the sequence (Q96SW2 whole entry, looked up) above
Assay [6] shares this target. Briefly: PROTAC activity at H-PGDS/CRBN in human KU812 cells assessed as reduction in H-PGDS level at 100 pM measured after 6 hrs by Western blot analysis relative to control. The format is cell-based. More on the design: scale not given: the % may be the effect or the level left. The settings on record: KU812 cell line.
Target sequence in this assay (O60760 whole entry, looked up): as the sequence (O60760 whole entry, looked up) above
Target sequence in this assay (Q96SW2 whole entry, looked up): as the sequence (Q96SW2 whole entry, looked up) above
Assay [7] has the same target. The assay can be described thus: PROTAC activity at H-PGDS/CRBN in human MEG01s cells assessed as H-PGDS degradation measured after 6 to 24 hrs by Western blot analysis. Conditions: time 6-24 hrs. The format is cell-based.
Target sequence in this assay (O60760 whole entry, looked up): as the sequence (O60760 whole entry, looked up) above
Target sequence in this assay (Q96SW2 whole entry, looked up): as the sequence (Q96SW2 whole entry, looked up) above
For assay [8] the target is unchanged. The assay can be described thus: PROTAC activity at H-PGDS/CRBN in human KU812 cells assessed as H-PGDS degradation in presence of MLN7243 at 100 pM measured after 6 hrs by Western blot analysis. The format is cell-based. The settings on record: KU812 cell line.
Target sequence in this assay (O60760 whole entry, looked up): as the sequence (O60760 whole entry, looked up) above
Target sequence in this assay (Q96SW2 whole entry, looked up): as the sequence (Q96SW2 whole entry, looked up) above
The target is the same in assay [9]. The assay can be described thus: PROTAC activity at H-PGDS/CRBN in human KU812 cells assessed as H-PGDS degradation in presence of pomalidomide measured after 6 hrs by Western blot analysis. The format is cell-based. The settings on record: KU812 cell line.
Target sequence in this assay (O60760 whole entry, looked up): as the sequence (O60760 whole entry, looked up) above
Target sequence in this assay (Q96SW2 whole entry, looked up): as the sequence (Q96SW2 whole entry, looked up) above
For assay [10] the target is unchanged. The assay can be described thus: PROTAC activity at H-PGDS/CRBN in human KU812 cells assessed as H-PGDS degradation measured after 24 hrs by Western blot analysis. The settings on record: KU812 cell line. The format is cell-based.
Assay [11] has as its system KU812. The assay can be described thus: Effect on H-PGDS mRNA level in human KU812 cells measured up to 10000 pM incubated for 6 hrs by quantitative RT-PCR analysis. The format is functional, cell-based.

Active and inactive are the calls of the source. The rule behind the calls is not given here.

Chain of Hematopoietic prostaglandin D synthase (O60760 whole entry): as the sequence (O60760 whole entry, looked up) above

For the molecule `Nc1cccc2c1C(=O)N(C1CCC(=O)NC1=O)C2=O` (stereo not given), the outcome in assay [1] was inactive.
Take `CN1C(=O)CCC(N2C(=O)c3cccc(N4CCN(C(=O)C5CCN(c6ccc(NC(=O)c7cnc(Oc8ccccc8)nc7)cc6)CC5)CC4)c3C2=O)C1=O` (stereo not given): the result in assay [1] was Active. For the same molecule, the IC50 in [2] stood at 140 nM. Further, the DC50 in assay [3] was 0.024 nM.
With `O=C1CCC(N2C(=O)c3cccc(NCCNC(=O)C4CCN(c5ccc(NC(=O)c6cnc(Oc7ccccc7)nc6)cc5)CC4)c3C2=O)C(=O)N1` (stereo not given), in [2], the inhibition entry is “inactive”.
For `O=C(Nc1ccc(N2CCC(C(=O)N3CCOCC3)CC2)cc1)c1cnc(Oc2ccccc2)nc1`, the outcome in assay [1] was Active. The IC50 in assay [2] turned out to be 170 nM.
Regarding `O=C1CCC(N2C(=O)c3cccc(N4CCN(C(=O)C5CCN(c6ccc(NC(=O)c7cnc(Oc8ccccc8)nc7)cc6)CC5)CC4)c3C2=O)C(=O)N1` (stereo not given), the outcome in [4], in assay [8], in [9], in assay [10] and in assay [11] was inactive. The outcome in assay [1] and in assay [7] was Active. For the same molecule, the Activity in assay [5] was 12.9%; in assay [6], 30.8%. The same molecule yielded an IC50 in assay [2] of 170 nM. In addition, in [3], the DC50 is 0.0173 nM.
`O=C1CCC(N2C(=O)c3cccc(N4CCN(c5ccc(NC(=O)c6cnc(Oc7ccccc7)nc6)cc5)CC4)c3C2=O)C(=O)N1` (stereo not given): the inhibition result in [2] is “inactive”. The result in assay [3] (KU812 cell line) was inactive.

Broadly, the IC50 is the concentration at which inhibition is half-maximal. As usually defined, the DC50 is the concentration at which degradation of the target reaches its halfway point.
